pIC50: −log10 of the molar value.
Assays:
[1] = Clearance in rat at 0.25 mg/kg, iv and 2.5 mg/kg, po; format: ADME, organism-based; conditions: in vivo
[2] = Oral bioavailability in rat at 2.5 mg/kg; format: ADME, organism-based; conditions: in vivo
[3] = biological target: Muscarinic acetylcholine receptor M3 (Homo sapiens) (UniProt P20309); assay: Agonist activity at muscarinic M3 receptor (unknown origin) at 1 uM by calcium mobilization assay; format: functional
[4] = biological target: T1, Muscarinic acetylcholine receptor M2 (Homo sapiens) (UniProt P08172); assay: Agonist activity at muscarinic M2 receptor (unknown origin) at 1 uM by calcium mobilization assay; format: functional
T1 sequence (whole entry): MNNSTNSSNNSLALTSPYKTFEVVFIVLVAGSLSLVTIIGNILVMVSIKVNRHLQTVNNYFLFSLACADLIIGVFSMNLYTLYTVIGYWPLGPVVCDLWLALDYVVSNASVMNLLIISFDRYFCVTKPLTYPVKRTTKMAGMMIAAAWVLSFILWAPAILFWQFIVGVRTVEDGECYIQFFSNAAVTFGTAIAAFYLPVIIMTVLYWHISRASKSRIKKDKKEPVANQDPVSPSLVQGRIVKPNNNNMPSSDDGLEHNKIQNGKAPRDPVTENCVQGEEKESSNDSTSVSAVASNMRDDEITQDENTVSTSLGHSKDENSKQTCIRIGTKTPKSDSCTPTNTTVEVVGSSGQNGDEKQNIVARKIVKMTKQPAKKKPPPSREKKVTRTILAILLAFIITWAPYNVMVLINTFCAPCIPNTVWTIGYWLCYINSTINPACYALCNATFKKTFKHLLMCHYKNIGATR

[5] = biological target: T2, Muscarinic acetylcholine receptor M4 (Homo sapiens) (UniProt P08173); assay: Agonist activity at muscarinic M4 receptor (unknown origin) at 1 uM by calcium mobilization assay; format: functional
T2 sequence (whole entry): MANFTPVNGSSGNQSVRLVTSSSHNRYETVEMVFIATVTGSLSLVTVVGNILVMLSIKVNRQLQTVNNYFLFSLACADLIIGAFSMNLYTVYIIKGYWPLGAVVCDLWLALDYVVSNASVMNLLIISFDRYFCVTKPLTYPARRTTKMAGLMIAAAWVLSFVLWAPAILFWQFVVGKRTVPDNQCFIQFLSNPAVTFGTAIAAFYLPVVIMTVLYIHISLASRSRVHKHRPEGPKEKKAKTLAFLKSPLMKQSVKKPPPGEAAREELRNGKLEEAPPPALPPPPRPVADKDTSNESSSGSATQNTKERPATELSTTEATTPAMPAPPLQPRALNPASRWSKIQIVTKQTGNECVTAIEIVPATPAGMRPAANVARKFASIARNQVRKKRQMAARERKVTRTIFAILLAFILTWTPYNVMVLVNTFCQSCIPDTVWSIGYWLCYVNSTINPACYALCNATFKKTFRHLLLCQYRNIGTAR

[6] = biological target: T3, Muscarinic acetylcholine receptor M1 (Homo sapiens) (UniProt P11229); assay: Agonist activity at muscarinic M1 receptor (unknown origin) at 1 uM by calcium mobilization assay; format: functional
T3 sequence (whole entry): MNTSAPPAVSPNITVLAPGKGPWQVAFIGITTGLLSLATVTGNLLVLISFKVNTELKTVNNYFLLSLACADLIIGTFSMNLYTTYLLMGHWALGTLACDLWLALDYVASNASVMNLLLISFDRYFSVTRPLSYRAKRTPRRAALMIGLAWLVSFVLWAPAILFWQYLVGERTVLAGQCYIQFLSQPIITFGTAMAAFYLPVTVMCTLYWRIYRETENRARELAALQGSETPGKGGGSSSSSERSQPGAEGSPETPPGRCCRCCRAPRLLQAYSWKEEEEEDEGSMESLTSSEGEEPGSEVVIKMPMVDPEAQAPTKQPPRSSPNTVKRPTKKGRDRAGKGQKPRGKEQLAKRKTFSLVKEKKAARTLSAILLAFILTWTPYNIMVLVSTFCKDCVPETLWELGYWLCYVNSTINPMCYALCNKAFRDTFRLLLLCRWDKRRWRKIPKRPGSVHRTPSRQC

[7] = biological target: T4, Muscarinic acetylcholine receptor M5 (Homo sapiens) (UniProt P08912); assay: Agonist activity at muscarinic M5 receptor (unknown origin) at 10 uM by calcium mobilization assay; format: functional
T4 sequence (whole entry): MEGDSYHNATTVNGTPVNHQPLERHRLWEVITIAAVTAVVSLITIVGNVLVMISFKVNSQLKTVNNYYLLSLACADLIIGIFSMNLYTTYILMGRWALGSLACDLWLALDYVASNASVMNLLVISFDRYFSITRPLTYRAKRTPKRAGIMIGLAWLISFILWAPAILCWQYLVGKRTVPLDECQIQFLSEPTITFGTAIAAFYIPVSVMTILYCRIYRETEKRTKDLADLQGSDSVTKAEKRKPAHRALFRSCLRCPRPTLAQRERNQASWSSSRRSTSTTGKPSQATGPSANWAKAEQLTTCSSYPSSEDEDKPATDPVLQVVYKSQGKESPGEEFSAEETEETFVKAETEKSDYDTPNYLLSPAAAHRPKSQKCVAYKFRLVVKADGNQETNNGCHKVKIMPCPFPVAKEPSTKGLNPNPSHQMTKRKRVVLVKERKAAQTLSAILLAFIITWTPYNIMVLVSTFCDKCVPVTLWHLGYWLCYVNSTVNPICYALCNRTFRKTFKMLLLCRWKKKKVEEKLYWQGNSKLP

[8] = biological target: Muscarinic acetylcholine receptor M3 (Homo sapiens) (UniProt P20309); assay: Agonist activity at muscarinic M3 receptor (unknown origin) at 0.3 uM by calcium mobilization assay; format: functional
[9] = biological target: T3, Muscarinic acetylcholine receptor M1 (Homo sapiens); assay: Agonist activity at muscarinic M1 receptor (unknown origin) at 0.3 uM by calcium mobilization assay; format: functional
[10] = biological target: T2, Muscarinic acetylcholine receptor M4 (Homo sapiens); assay: Agonist activity at muscarinic M4 receptor (unknown origin) at 0.3 uM by calcium mobilization assay; format: functional
[11] = biological target: T1, Muscarinic acetylcholine receptor M2 (Homo sapiens); assay: Agonist activity at muscarinic M2 receptor (unknown origin) at 0.3 uM by calcium mobilization assay; format: functional
[12] = Lipophilicity, log P of the compound; format: physicochemical; conditions: octanol/water
[13] = biological target: Voltage-gated inwardly rectifying potassium channel KCNH2 (Homo sapiens, UniProt Q12809); assay: Inhibition of human ERG channel
Sequence of Voltage-gated inwardly rectifying potassium channel KCNH2 (Q12809 whole entry): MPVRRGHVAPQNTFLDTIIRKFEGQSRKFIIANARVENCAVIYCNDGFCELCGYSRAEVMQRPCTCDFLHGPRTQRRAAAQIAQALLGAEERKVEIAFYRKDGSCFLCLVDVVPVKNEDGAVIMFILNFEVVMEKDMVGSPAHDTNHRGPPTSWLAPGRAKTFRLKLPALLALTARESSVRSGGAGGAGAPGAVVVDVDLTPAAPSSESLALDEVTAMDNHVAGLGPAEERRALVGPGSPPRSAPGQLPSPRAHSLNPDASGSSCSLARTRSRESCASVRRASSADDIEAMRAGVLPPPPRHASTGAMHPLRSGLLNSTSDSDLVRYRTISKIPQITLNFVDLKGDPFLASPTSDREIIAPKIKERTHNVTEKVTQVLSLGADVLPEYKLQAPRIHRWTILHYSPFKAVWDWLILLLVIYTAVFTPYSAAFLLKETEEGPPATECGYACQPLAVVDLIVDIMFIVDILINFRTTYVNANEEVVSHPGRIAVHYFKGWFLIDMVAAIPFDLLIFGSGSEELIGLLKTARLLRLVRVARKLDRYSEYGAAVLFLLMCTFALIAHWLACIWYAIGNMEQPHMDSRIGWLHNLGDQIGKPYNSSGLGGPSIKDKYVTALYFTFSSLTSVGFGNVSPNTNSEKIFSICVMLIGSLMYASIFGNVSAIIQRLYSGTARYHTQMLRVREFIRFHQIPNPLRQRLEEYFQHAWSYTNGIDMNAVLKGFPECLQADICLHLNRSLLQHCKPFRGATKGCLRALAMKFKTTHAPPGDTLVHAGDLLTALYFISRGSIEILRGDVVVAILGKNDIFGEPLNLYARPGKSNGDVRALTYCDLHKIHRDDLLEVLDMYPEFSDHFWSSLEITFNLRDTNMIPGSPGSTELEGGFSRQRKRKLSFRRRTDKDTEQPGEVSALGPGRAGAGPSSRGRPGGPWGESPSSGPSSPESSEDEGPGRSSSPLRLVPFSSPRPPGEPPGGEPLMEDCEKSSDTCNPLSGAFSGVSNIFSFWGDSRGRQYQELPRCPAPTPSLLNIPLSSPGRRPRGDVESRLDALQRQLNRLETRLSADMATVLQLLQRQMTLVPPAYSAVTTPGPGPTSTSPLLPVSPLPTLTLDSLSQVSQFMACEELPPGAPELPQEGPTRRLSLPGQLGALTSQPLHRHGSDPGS

Sequence of Muscarinic acetylcholine receptor M3 (Homo sapiens) (P20309 whole entry, looked up): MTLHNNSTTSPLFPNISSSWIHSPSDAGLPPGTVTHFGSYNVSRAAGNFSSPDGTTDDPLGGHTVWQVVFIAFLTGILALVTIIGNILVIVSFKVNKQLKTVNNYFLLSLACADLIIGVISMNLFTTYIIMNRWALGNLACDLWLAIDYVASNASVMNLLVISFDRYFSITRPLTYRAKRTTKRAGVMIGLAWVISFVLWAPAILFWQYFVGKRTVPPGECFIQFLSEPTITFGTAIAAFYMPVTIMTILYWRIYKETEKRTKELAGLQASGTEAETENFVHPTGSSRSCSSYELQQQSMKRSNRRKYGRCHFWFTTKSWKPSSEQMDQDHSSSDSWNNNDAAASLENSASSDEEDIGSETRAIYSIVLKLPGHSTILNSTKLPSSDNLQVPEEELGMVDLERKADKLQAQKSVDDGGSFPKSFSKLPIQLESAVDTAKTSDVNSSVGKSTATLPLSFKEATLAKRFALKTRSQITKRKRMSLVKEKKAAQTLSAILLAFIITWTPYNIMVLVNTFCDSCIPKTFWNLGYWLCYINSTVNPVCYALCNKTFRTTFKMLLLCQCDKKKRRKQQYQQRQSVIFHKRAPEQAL

Compound	Activity [3] [%]	Activity [4] [%]	Activity [5] [%]	Activity [6] [%]	Activity [7] [%]	Activity [10] [%]	also measured
CCOC(=O)N1CCC(CN2CCC3(CC2)CN(C(N)=O)c2ncccc23)CC1	–	–	–	–	8	103	Activity [8]: 11%; Activity [9]: 99%; Activity [11]: 17%; logP [12]: 2
CCOC(=O)N1CCC(CN2CCC3(CC2)OC(=O)Nc2ncccc23)CC1	–	–	–	–	–	–	clearance [1]: 17.5 mL/min/kg
CCOC(=O)N1CCC(CN2CCC3(CC2)CN(C(=O)OC)c2ncccc23)CC1	–	–	7	–	–	–	–
CCOC(=O)N1CCC(CN2CCC3(CC2)CN(C(=O)NC)c2ncccc23)CC1	–	–	–	–	17	98	Activity [8]: 8%; Activity [9]: 74%; Activity [11]: 7%; logP [12]: 2.5; pIC50 [13]: 6.52
CCOC(=O)N1CCC(CN2CCC3(CC2)OC(=O)N(C)c2ncccc23)CC1	–	–	–	–	–	–	clearance [1]: 71.6 mL/min/kg
CCOC(=O)N1CCC(CN2CCC3(CC2)CN(S(C)(=O)=O)c2ncccc23)CC1	–	–	–	–	3	88	Activity [8]: 7%; Activity [9]: 20%; Activity [11]: 12%

Continued, in another order:

Activity [3] [%]	Activity [4] [%]	Activity [5] [%]	Activity [6] [%]	Activity [7] [%]	Activity [10] [%]	Compound	also measured
2	20	134	91	3	–	CCOC(=O)N1CCC(CN2CCC3(CC2)CC(=O)N(CC)c2ncccc23)CC1	clearance [1]: 49.3 mL/min/kg; bioavailability [2]: 2.6%
–	–	–	–	–	10	CCOC(=O)N1CCC(CN2CCC3(CC2)CN(C(=O)N2CCCC2)c2ncccc23)CC1	–
4	23	132	52	9	–	CCOC(=O)N1CCC(CN2CCC3(CC2)CN(C(=O)N(CC)CC)c2ncccc23)CC1	pIC50 [13]: 5.60
–	–	–	–	–	29	CCOC(=O)N1CCC(CN2CCC3(CC2)CN(C(=O)N2CCC2)c2ncccc23)CC1	–
5	13	77	55	11	–	CCNC(=O)N1CC2(CCN(CC3CCN(C(=O)OCC)CC3)CC2)c2cccnc21	pIC50 [13]: 6.64
6	14	58	34	17	–	CCOC(=O)N1CCC(CN2CCC3(CC2)CN(CC)c2ncccc23)CC1	–
